# Tests used:
# [1] = test system: human airway epithelial cells (HAECs); assay: High-throughput sequencing (HTS) of miRNAs at four stages of differentiation of HAECs; conditions: for Modulation (ratio of the level of intensity of expression in log2 in two stages of differentiation) measured by high-throughput sequencing, D7 − D0 / Modulation (ratio of the level of intensity of expression in log2 in two stages of differentiation) measured by high-throughput sequencing, FC − D7 / Modulation (ratio of the level of intensity of expression in log2 in two stages of differentiation) measured by high-throughput sequencing, WD − D0 / Modulation (ratio of the level of intensity of expression in log2 in two stages of differentiation) measured by high-throughput sequencing, WD − FC / Level of intensity of expression in log2 measured by high-throughput sequencing, D0 / Level of intensity of expression in log2 measured by high-throughput sequencing, D7 / Level of intensity of expression in log2 measured by high-throughput sequencing, FC / Level of intensity of expression in log2 measured by high-throughput sequencing, WD: Table VI; for Level of intensity of expression in log2 At the differentiated stage (WD) measured in HTS: healthy human airway epithelial tissue; for Level of intensity of expression in log2 measured by high-throughput sequencing, D0: stage D0; for Level of intensity of expression in log2 measured by high-throughput sequencing, D7: stage D7; for Level of intensity of expression in log2 measured by high-throughput sequencing, FC: stage FC; for Level of intensity of expression in log2 At the differentiated stage (WD) measured in HTS / Level of intensity of expression in log2 measured by high-throughput sequencing, WD: stage WD
# Summary of the method: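 ALI cultures sampled at day 0, day 7, first-cilia stage (~14 d) and full differentiation (~21 d). Trizol lysis, column purification retaining small RNAs. Adaptor ligation, RT at 42° C for 30 min, PCR, gel selection of ~105-150 base products.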
# [2] = test system: human airway epithelial cells (HAECs); assay: Agilent miRNA chips, miRNA expression at four stages of differentiation of HAECs; conditions: for Modulation (ratio of the level of intensity of expression in log2 in two stages of differentiation) measured with the Agilent chips, D7 − D0 / Modulation (ratio of the level of intensity of expression in log2 in two stages of differentiation) measured with the Agilent chips, FC − D7 / Modulation (ratio of the level of intensity of expression in log2 in two stages of differentiation) measured with the Agilent chips, WD − D0 / Modulation (ratio of the level of intensity of expression in log2 in two stages of differentiation) measured with the Agilent chips, WD − FC / Level of intensity of expression in log2 measured with the Agilent chips, D0 / Level of intensity of expression in log2 measured with the Agilent chips, D7 / Level of intensity of expression in log2 measured with the Agilent chips, FC / Level of intensity of expression in log2 measured with the Agilent chips, WD: Table VI; for Modulation (ratio of the level of intensity of expression in log2 at two stages of differentiation), FC − D7 / Modulation (ratio of the level of intensity of expression in log2 at two stages of differentiation), WD − FC: Agilent miRNA chips, Table V; for Level of intensity of expression in log2 measured with the Agilent chips, D0: stage D0; for Level of intensity of expression in log2 measured with the Agilent chips, D7: stage D7; for Level of intensity of expression in log2 measured with the Agilent chips, FC: stage FC; for Level of intensity of expression in log2 measured with the Agilent chips, WD: stage WD
# Summary of the method: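 RNA from the same patients used for small-RNA sequencing was labelled and hybridized to a Human miRNA Microarray v2 (866 human and 89 human viral miRNAs, covering miRBase v.12.0) with the kit's labelling and hybridization protocol, giving miRNA expression profiles to compare against the sequencing data.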
# [3] = test system: basal cells and pyramidal cells of the airway epithelium; assay: miRNA expression in sorted basal cells versus pyramidal cells (ciliated + secretory), HTS and Agilent chips; design: species or system human; conditions: for Modulation of expression of the miRNAs in pyramidal cells (323(−)) relative to basal cells 323(+): HTS and Agilent chips; for Intensity of the level of expression in log2 in pyramidal cells (323(−)): pyramidal cells (ciliated + secretory)
# Summary of the method: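 FACS on CD151 and tissue factor: double-positive = basal, double-negative = ciliated + mucus cells; DAPI, doublets, aggregates excluded; sort at 5000 events/s. Purity checked by cytometry/immunocytochemistry. miRNA by Agilent array or HTS on total RNA. Source: nasal polyps/conchae, 3 donors.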
Substance,"Modulation (ratio of the level of intensity of expression in log2 in two stages of differentiation) measured by high-throughput sequencing, D7 − D0 [1]","Modulation (ratio of the level of intensity of expression in log2 in two stages of differentiation) measured by high-throughput sequencing, FC − D7 [1]","Modulation (ratio of the level of intensity of expression in log2 in two stages of differentiation) measured by high-throughput sequencing, WD − D0 [1]","Modulation (ratio of the level of intensity of expression in log2 in two stages of differentiation) measured by high-throughput sequencing, WD − FC [1]",Level of intensity of expression in log2 At the differentiated stage (WD) measured in HTS [1],"Level of intensity of expression in log2 measured by high-throughput sequencing, D0 [1]","Level of intensity of expression in log2 measured by high-throughput sequencing, D7 [1]","Level of intensity of expression in log2 measured by high-throughput sequencing, FC [1]","Level of intensity of expression in log2 measured by high-throughput sequencing, WD [1]","Modulation (ratio of the level of intensity of expression in log2 in two stages of differentiation) measured with the Agilent chips, D7 − D0 [2]","Modulation (ratio of the level of intensity of expression in log2 at two stages of differentiation), FC − D7 [2]","Modulation (ratio of the level of intensity of expression in log2 in two stages of differentiation) measured with the Agilent chips, FC − D7 [2]","Modulation (ratio of the level of intensity of expression in log2 in two stages of differentiation) measured with the Agilent chips, WD − D0 [2]","Modulation (ratio of the level of intensity of expression in log2 at two stages of differentiation), WD − FC [2]","Modulation (ratio of the level of intensity of expression in log2 in two stages of differentiation) measured with the Agilent chips, WD − FC [2]","Level of intensity of expression in log2 measured with the Agilent chips, D0 [2]","Level of intensity of expression in log2 measured with the Agilent chips, D7 [2]","Level of intensity of expression in log2 measured with the Agilent chips, FC [2]","Level of intensity of expression in log2 measured with the Agilent chips, WD [2]",Modulation of expression of the miRNAs in pyramidal cells (323(−)) relative to basal cells 323(+) [3],also measured
"hsa-miR-30c: human miRNA, SEQ ID No. 34 (UGUAAACAUCCUACACUCUCAGC; expressed or natural sequence; listed as Homo sapiens)",0.32 log2,−0.33 log2,−0.40 log2,−0.39 log2,10.87 log2,0.42 log2,0.73 log2,0.41 log2,0.01 log2,1.97 log2,−0.34 log2,−0.34 log2,1.51 log2,−0.12 log2,−0.12 log2,7.80 log2,9.77 log2,9.43 log2,9.31 log2,−1.01,Intensity of the level of expression in log2 in basal cells (323(+)) [3]: 6.92 log2; Intensity of the level of expression in log2 in pyramidal cells (323(−)) [3]: 5.91 log2
"hsa-miR-30d: human miRNA, SEQ ID No. 35 (UGUAAACAUCCCCGACUGGAAG; expressed or natural sequence; listed as Homo sapiens)",0.64 log2,−0.09 log2,1.75 log2,1.20 log2,8.76 log2,9.12 log2,9.76 log2,9.67 log2,10.87 log2,1.88 log2,−0.06 log2,−0.06 log2,1.86 log2,0.05 log2,0.05 log2,7.06 log2,8.94 log2,8.88 log2,8.92 log2,−1.11,Intensity of the level of expression in log2 in basal cells (323(+)) [3]: 8.16 log2; Intensity of the level of expression in log2 in pyramidal cells (323(−)) [3]: 7.05 log2
"hsa-miR-30e: human miRNA, SEQ ID No. 36 (UGUAAACAUCCUUGACUGGAAG; expressed or natural sequence; listed as Homo sapiens)",1.27 log2,−0.02 log2,1.71 log2,0.46 log2,12.74 log2,7.04 log2,8.31 log2,8.30 log2,8.76 log2,2.76 log2,−0.25 log2,−0.25 log2,2.38 log2,−0.13 log2,−0.13 log2,6.73 log2,9.50 log2,9.25 log2,9.12 log2,−1.60,Intensity of the level of expression in log2 in basal cells (323(+)) [3]: 6.94 log2; Intensity of the level of expression in log2 in pyramidal cells (323(−)) [3]: 5.34 log2
"hsa-miR-34a: human miRNA, SEQ ID No. 38 (UGGCAGUGUCUUAGCUGGUUGU; expressed or natural sequence; listed as Homo sapiens)",1.46 log2,−1.04 log2,0.88 log2,0.45 log2,13.75 log2,10.31 log2,11.77 log2,10.73 log2,11.18 log2,2.31 log2,−0.54 log2,−0.54 log2,1.91 log2,0.13 log2,0.13 log2,8.58 log2,10.89 log2,10.35 log2,10.49 log2,0.64,Intensity of the level of expression in log2 in basal cells (323(+)) [3]: 6.72 log2; Intensity of the level of expression in log2 in pyramidal cells (323(−)) [3]: 7.36 log2

# — US9023821B2, “Use of MicroRNA for treating diseases associated with a dysfunction of the cilia in multiciliated epithelial cells” (Centre National de la Recherche Scientifique, priority 2009, dated 2015)
